In ChEMBL document CHEMBL1158917, “Elabunin, a New Cytotoxic Triterpene from an East African Medicinal Plant, Elaeodendron buchananii” (1990):
Converted amounts (≈) assume the structure as drawn.

Test system: L1210
Experiment: Cytotoxicity against mouse L1210 cells
Assay type: functional
Details: read-out: ED50 (the source's name)

C=C(CCC=C(C)C)[C@H]1[C@H](O)C[C@]2(C)[C@@H]1CC[C@@H]1[C@@]3(C)CCC(=O)C(C)(C)[C@@H]3CC[C@]12C [ELABUNIN]
EC50: 1 µg/mL (≈ 2.27 µM)
